According to publication PMC9952215, “Giving a Hand: Synthetic Peptides Boost the Antifungal Activity of Itraconazole against Cryptococcus neoformans” (Antibiotics, 2023):
≈ marks a conversion by molar mass, not a printed value.

Key:
[1] = system: C. neoformans (ATCC 32045); test: Combined antifungal activity (growth inhibition, absorbance 600 nm); assay type: cell-based, Cryptococcus neoformans; details: YPD, 10^6 cells mL^−1, 24 h, 30 °C, A600, mean ± SD
Protocol: The combined antifungal activity was evaluated as described in [11]. The combinations with SAMPs and itraconazole were constituted of peptides MIC50 [7] + itraconazole (ITR) 500 (1×) µg mL^−1, peptides [5×D] + ITR [1×D], peptides [10×D] + ITR [5×D], and peptides [10×D] + ITR [10×D]. The cells were grown on YPD agar for […], and cryptococcal cells were then resuspended in YPD medium and standardized at 10^6 cells mL^−1. The assay was performed in 96-well plates and incubated for 24 h at 30 °C. Then, the absorbance was measured at 600 nm using an automated microplate reader (Epoch, Biotek, Santa Clara, CA, USA). The best combinations were used to study the mechanisms of action. […] Experiments were performed in three biological replications, and each biological replication was performed with three technical replicates. The statistical analyses were performed using GraphPad Prism (version 5.01) for Microsoft Windows. All data obtained in the assays were compared using standard deviation and the one-way analysis of variance (ANOVA), followed by the Tukey test (p < 0.05).

C. neoformans cells [2] = test: Cell membrane integrity / membrane pore formation (propidium iodide uptake, fluorescence microscopy, ImageJ counting); assay type: cell-based, Cryptococcus neoformans
Protocol: The cell membrane integrity of C. neoformans was evaluated as described in [7]. After incubation for 24 h, as described above, the samples were washed three times with sterile 0.15 M NaCl and centrifuged (5000× g 5 min at 4 °C) to remove the YPD medium. Then, the cells were incubated with propidium iodide (PI) for 30 min in the dark at room temperature (22 °C ± 2). Next, they were washed and centrifuged twice, under the same conditions as previously mentioned. […] The fluorescent C. neoformans cells were counted using ImageJ software using the Cell Counter plugin, according to the methodology described by Aguiar et al. […] The cells were counted in the bright and fluorescent field of the same picture. Cells presenting fluorescence were called positive cells, and those without fluorescence were called negative cells. […] The cells were calculated using the equation: number of positive cells × 100/number of cells in the bright field. The number of negative cells was calculated following the equation: number of cells in the bright field—number of positive cells. Three different images were used to count the cells.

C. neoformans [3] = details: cited from earlier work; for MIC50 against C. neoformans, alone / concentration in the combination of ibuprofen and ITR: ref 17 (Rocha et al.); for concentration in the combination of ibuprofen and ITR: ibuprofen combined with ITR
From the text: For example, […] et al. reported the combined activity against C. neoformans of the aminoglycoside K20 with ITR. […] In contrast, when combined, the concentration to reach the same activity decreases to 187 and 1 for K20 and ITR [16]. In another study, Rocha et al. evaluated the synergistic effect between ibuprofen and ITR against C. neoformans. […] However, the co ...

C. neoformans [4] = system: C. neoformans; design: method as in earlier work; details: previously defined; ref 7 (Aguiar et al.); cited from earlier work
C. neoformans cells [5] = test: Overproduction of reactive oxygen species (DCFH-DA, fluorescence microscopy, ImageJ counting); assay type: cell-based, Cryptococcus neoformans
Protocol: The ROS overproduction was evaluated according to the method Dias et al.. After incubation for 24 h, as described above, the samples were washed three times with sterile 0.15 M NaCl and centrifuged (5000× g 5 min at 4 °C) to remove the YPD medium. The analysis was conducted, as described, by PI assay. Next, 9 μL of 2',7' […] diacetate-DCFH-DA (Sigma, St. Louis, MI, USA)-was added and incubated in the dark for 30 min at room temperature (22 °C ± 2). Next, they were washed and centrifuged twice under the same conditions as those mentioned above. Then, the cryptococcal cells were observed under a fluorescence microscope (Olympus System BX 41, Tokyo, Japan), with an excitation wavelength of 488 nm and an emission wavelength of 525 nm. The fluorescent C. neoformans cells were counted using ImageJ software using the Cell Counter plugin, according to the methodology described by Aguiar et al.. The cells were counted in the bright and fluorescent field of the same picture. Cells presenting fluorescence were called positive cells, and those without fluorescence were called negative cells. […] The cells were calculated using the equation: number of positive cells × 100/number of cells in the bright field. The number of negative cells was calculated following the equation: number of cells in the bright field-number of positive cells. Three different images were used to count the cells.

| SMILES | % of Inhibition of C. neoformans Growth ([1]; single agent at 1× (ITR 500; Mo-CBP3-PepII 25; RcAlb-PepII, RcAlb-PepIII, PepGAT, PepKAA 0.04 µg mL^−1)) [%] | % of Inhibition of C. neoformans Growth ([1]; single agent at 5×D (ITR 100; Mo-CBP3-PepII 5; other peptides 0.008 µg mL^−1)) [%] | % of Inhibition of C. neoformans Growth ([1]; single agent at 10×D (ITR 50; Mo-CBP3-PepII 2.5; other peptides 0.004 µg mL^−1)) [%] | positive PI-fluorescent cells (C. neoformans cells [2]; ITR alone (dilution not given; ITR 1× in Figure 1 text), ImageJ count of three images) [%] | membrane pore formation (PI red fluorescence), qualitative (C. neoformans cells [2]; single agent at 1×, fluorescence images, Figure 1) | concentration to reach the same activity when combined (C. neoformans [3]; K20 combined with ITR, unit not given, ref 16 (Shrestha et al.)) | concentration presenting activity against C. neoformans, alone (C. neoformans [3]; agent alone, ref 16 (Shrestha et al.)) [µg/mL] | MIC50 against C. neoformans, alone (C. neoformans [3]; agent alone) [µg/mL] | concentration in the combination of ibuprofen and ITR (C. neoformans [3]) [µg/mL] | MIC50 against C. neoformans (C. neoformans [4]) [µg/mL] | DCFH-DA-fluorescent cells (C. neoformans cells [5]; ITR alone (dilution not stated), ImageJ count of three images) [%] | ROS accumulation (DCFH-DA fluorescence), qualitative (C. neoformans cells [5]; ITR alone, fluorescence images, Figure 2) |
| --- | --- | --- | --- | --- | --- | --- | --- | --- | --- | --- | --- | --- |
| CCC(C)n1ncn(-c2ccc(N3CCN(c4ccc(OCC5COC(Cn6cncn6)(c6ccc(Cl)cc6Cl)O5)cc4)CC3)cc2)c1=O (centres unmarked) [ITR, itraconazole] | 45.3 ± 0.021 | 12.2 ± 0.003 | 0 | 0 | no red fluorescence | 1 | 780 | 500 | 125 | 500 (≈ 709 µM) | 0 | no ROS accumulation |
| CC(C)Cc1ccc(C(C)C(=O)O)cc1 (centres unmarked) [ibuprofen] | – | – | – | – | – | – | – | 512 | 16 | – | – | – |
